Reference: patent US20110294843A1, “ADMINISTRATION SCHEME OF POLAR OPIOID METABOLITES FOR POST-OPERATIVE PAIN MANAGEMENT” (PAION UK Limited, priority 2008, published 2011)
Read-outs that look alike come from different tables or passages of the source.

Columns and labels:
[1] = test system: patients following hip-replacement surgery; assay: M6G012 study: acute pain following hip-replacement surgery under general anaesthetic; type: in vivo, human; details: 30 mg/70 kg at skin closure, four hour post-operative period
[2] = prior experimental human and clinical studies; cited from earlier work
[3] = test system: patients following total knee-replacement surgery; assay: M6G015 study: pain following total knee-replacement surgery; type: in vivo, human; details: 10, 20, 30 mg/70 kg slow IV, PCA morphine allowed
Procedure: Patients received a single dose of study treatment 150 minutes after the administration of the nerve block. […] The complete study has recently been reported by Dahan et al. (Eur J Pain, 2008; 12(4): 403-411).

μ-opioid receptor = μ-opioid receptor (Homo sapiens, UniProt P35372); details: cited from earlier work
[4] = literature, cited from earlier work
[5] = Partition coefficient (logP) between aqueous buffer and octanol; details: phosphate/n-octanol
Text: As stated above, the opioid metabolites according to the invention are polar metabolites. As understood hereinafter the term “polar” means a higher polarity as compared to the unpolar moφhine. The polar nature of a compound can be determined by measuring its partition coefficient between an aqueous buffer and an organic solvent such as octanol. […] This depends on the specific system.

[6] = Pharmacokinetics of M6G at single and multiple intravenous doses in healthy volunteers; type: in vivo, human; details: for MRT inf: read-out: MRT0-∞; for Vd: read-out: Vss; for half-life: read-out: t1/2 (converted)
Procedure: Healthy male and female subjects were divided into two groups (A and B) with 12 in each. Group A received three single intravenous infusions of M6G over 5 mins at levels of 15, 30 and 45 mg/70 kg in random order, having taken 50 mg of naloxone orally 24 hrs beforehand. There was a seven-day wash-out period between each dose. Blood samples were taken pre-dose and at the following time-points: 3, 5, 15, 30 mins and 1, 2, 3, 4, 6, 12 and 24 hrs after the start of the infusion. Group, B received five, 15 mg/70 kg, intravenous infusions of M6G, each over five minutes, at 6-hourly intervals, having taken a 50 mg oral dose of naloxone 24 hrs before the first infusion. Blood samples were taken before each of the 5 doses, and at 3, 5, 15, 30 mins and at 1, 2, 3 and 4 hrs after the initiation of the 1st and 5th infusions and at 6 hrs after the 5th dose. Vital signs (supine blood pressure, pulse, respiratory rate and oral temperature), respiration rate, pulse oximetry and adverse events were monitored during the study. Plasma levels of M6G were measured using HPLC/ms/ms.

[7] = both sexes, human, plasma, intravenous, 15 mg/70 kg, multiple dose, Dose 1-15 mg, Geometric Mean
[8] = both sexes, human, plasma, intravenous, 15 mg/70 kg, multiple dose, Dose 1-15 mg, Mean
[9] = both sexes, human, plasma, intravenous, 15 mg/70 kg, multiple dose, Dose 1-15 mg, Median
[10] = both sexes, human, plasma, intravenous, 15 mg/70 kg, multiple dose, Dose 5-15 mg, Geometric Mean
[11] = both sexes, human, plasma, intravenous, 15 mg/70 kg, multiple dose, Dose 5-15 mg, Mean
[12] = both sexes, human, plasma, intravenous, 15 mg/70 kg, multiple dose, Dose 5-15 mg, Median

μ-opioid receptor, sequence (P35372 whole entry, species assumed): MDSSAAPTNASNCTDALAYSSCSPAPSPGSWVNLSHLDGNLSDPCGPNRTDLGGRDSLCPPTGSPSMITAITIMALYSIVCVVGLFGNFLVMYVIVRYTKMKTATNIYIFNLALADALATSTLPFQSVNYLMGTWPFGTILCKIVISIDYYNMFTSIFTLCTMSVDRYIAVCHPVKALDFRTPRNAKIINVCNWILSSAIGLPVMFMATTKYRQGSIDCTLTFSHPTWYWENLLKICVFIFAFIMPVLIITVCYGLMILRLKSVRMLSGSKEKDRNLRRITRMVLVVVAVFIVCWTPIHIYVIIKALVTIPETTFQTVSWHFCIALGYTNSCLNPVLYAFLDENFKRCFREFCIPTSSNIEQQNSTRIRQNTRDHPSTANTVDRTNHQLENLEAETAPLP

## CN1CC[C@]23c4c5ccc(O)c4O[C@H]2[C@@H](OC2OC(C(=O)O)C(O)C(O)C2O)C=CC3[C@H]1C5 (stereo partly drawn) [M6G, (5α,6α)-7,8-Didehydro-4,5-epoxy-3-hydroxy-17-methylmorphinan-β-yl-β-D-glucopyranosiduronic acid]
[1]
  pain (VAS) compared with 10 mg/70 kg morphine at skin closure: non-inferior
[2]
  potency ratio morphine and M6G: 3 to 1
[3]
  patients' opinion of pain relief compared with placebo: no statistically significant differences
μ-opioid receptor
  affinity for the μ-opioid receptor compared with morphine: comparable affinity
[4]; Avdeef et al. 1996
  Log P: −0.76
[4]; Gaillard et al. 1994, calculated from lipophilicity potential
  Log P: −1.3
[4]; Wu et al. 1997
  Log P: −2.95
[5]
  logP: -2.4
[6]; 15 mg 6-hourly iv infusions
  average peak concentrations higher following Dose 5 than Dose 1: approximately 25%
[6]; 15, 30 and 45 mg single iv infusions
  dose proportionality of exposure (Cmax, AUC0-t, AUC0-∞): directly dose-proportional
[6]; both sexes, human, plasma, 15 mg/70 kg, 6 hours after each dose, 15 mg 6-hourly iv, read-out: trough levels
  concentration at 6 h: 63.9 ± 16.5 ng/mL
[6]; [7]
  clearance: 119 mL/min
  MRT inf: 2.07 h
  Vd: 14.7 L
  half-life: 1.71 h
[6]; both sexes, human, plasma, intravenous, 15 mg/70 kg, multiple dose, Dose 1-15 mg, Geometric Mean, read-out: AUC0-6
  AUC(0-t): 1910 ng·h/mL
[6]; both sexes, human, plasma, intravenous, 15 mg/70 kg, multiple dose, Dose 1-15 mg, Geometric Mean, read-out: AUC0-∞
  AUC(0-inf): 2110 ng·h/mL
[6]; both sexes, human, plasma, intravenous, 15 mg/70 kg, multiple dose, Dose 1-15 mg, Geometric Mean, read-out: Cmax
  Cmax: 1840 ng/mL
[6]; [8]
  clearance: 119 mL/min
  MRT inf: 2.1 h
  Vd: 14.8 L
  half-life: 1.73 h
[6]; both sexes, human, plasma, intravenous, 15 mg/70 kg, multiple dose, Dose 1-15 mg, Mean, read-out: AUC0-6
  AUC(0-t): 1920 ng·h/mL
[6]; both sexes, human, plasma, intravenous, 15 mg/70 kg, multiple dose, Dose 1-15 mg, Mean, read-out: AUC0-∞
  AUC(0-inf): 2130 ng·h/mL
[6]; both sexes, human, plasma, intravenous, 15 mg/70 kg, multiple dose, Dose 1-15 mg, Mean, read-out: Cmax
  Cmax: 1980 ng/mL
[6]; [9]
  clearance: 113 mL/min
  MRT inf: 2.17 h
  Vd: 14.2 L
  half-life: 1.65 h
[6]; both sexes, human, plasma, intravenous, 15 mg/70 kg, multiple dose, Dose 1-15 mg, Median, read-out: AUC0-6
  AUC(0-t): 1950 ng·h/mL
[6]; both sexes, human, plasma, intravenous, 15 mg/70 kg, multiple dose, Dose 1-15 mg, Median, read-out: AUC0-∞
  AUC(0-inf): 2210 ng·h/mL
[6]; both sexes, human, plasma, intravenous, 15 mg/70 kg, multiple dose, Dose 1-15 mg, Median, read-out: Cmax
  Cmax: 2090 ng/mL
[6]; both sexes, human, plasma, intravenous, 15 mg/70 kg, multiple dose, Dose 5-15 mg, Geometric Mean, read-out: AUC24-30
  AUC: 2070 ng·h/mL
[6]; both sexes, human, plasma, intravenous, 15 mg/70 kg, multiple dose, Dose 5-15 mg, Geometric Mean, read-out: AUC24-∞
  AUC: 2170 ng·h/mL
[6]; both sexes, human, plasma, intravenous, 15 mg/70 kg, multiple dose, Dose 5-15 mg, Geometric Mean, read-out: Cmax
  Cmax: 2290 ng/mL
[6]; [10]
  Vd: 11.9 L
  half-life: 1.49 h
[6]; both sexes, human, plasma, intravenous, 15 mg/70 kg, multiple dose, Dose 5-15 mg, Mean, read-out: AUC24-30
  AUC: 2080 ng·h/mL
[6]; both sexes, human, plasma, intravenous, 15 mg/70 kg, multiple dose, Dose 5-15 mg, Mean, read-out: AUC24-∞
  AUC: 2180 ng·h/mL
[6]; both sexes, human, plasma, intravenous, 15 mg/70 kg, multiple dose, Dose 5-15 mg, Mean, read-out: Cmax
  Cmax: 2370 ng/mL
[6]; [11]
  Vd: 12 L
  half-life: 1.5 h
[6]; both sexes, human, plasma, intravenous, 15 mg/70 kg, multiple dose, Dose 5-15 mg, Median, read-out: AUC24-30
  AUC: 2090 ng·h/mL
[6]; both sexes, human, plasma, intravenous, 15 mg/70 kg, multiple dose, Dose 5-15 mg, Median, read-out: AUC24-∞
  AUC: 2210 ng·h/mL
[6]; both sexes, human, plasma, intravenous, 15 mg/70 kg, multiple dose, Dose 5-15 mg, Median, read-out: Cmax
  Cmax: 2370 ng/mL
[6]; [12]
  Vd: 12.2 L
  half-life: 1.56 h
[6]; both sexes, human, plasma, intravenous, 15 mg/70 kg, single 5 min infusion 15 mg/70 kg, read-out: AUC0-t, Geometric LS means
  AUC(0-t): 1760 ng·h/mL
[6]; both sexes, human, plasma, intravenous, 15 mg/70 kg, single 5 min infusion 15 mg/70 kg, read-out: AUC0-∞, Geometric LS means
  AUC(0-inf): 1880 ng·h/mL
[6]; both sexes, human, plasma, intravenous, 15 mg/70 kg, single 5 min infusion 15 mg/70 kg, read-out: Cmax, Geometric LS means
  Cmax: 1740 ng/mL
[6]; both sexes, human, plasma, intravenous, 30 mg/70 kg, single 5 min infusion 30 mg/70 kg, read-out: AUC0-t, Geometric LS means
  AUC(0-t): 3880 ng·h/mL
[6]; both sexes, human, plasma, intravenous, 30 mg/70 kg, single 5 min infusion 30 mg/70 kg, read-out: AUC0-∞, Geometric LS means
  AUC(0-inf): 3970 ng·h/mL
[6]; both sexes, human, plasma, intravenous, 30 mg/70 kg, single 5 min infusion 30 mg/70 kg, read-out: Cmax, Geometric LS means
  Cmax: 3700 ng/mL
[6]; both sexes, human, plasma, intravenous, 45 mg/70 kg, single 5 min infusion 45 mg/70 kg, read-out: AUC0-t, Geometric LS means
  AUC(0-t): 5750 ng·h/mL
[6]; both sexes, human, plasma, intravenous, 45 mg/70 kg, single 5 min infusion 45 mg/70 kg, read-out: AUC0-∞, Geometric LS means
  AUC(0-inf): 5850 ng·h/mL
[6]; both sexes, human, plasma, intravenous, 45 mg/70 kg, single 5 min infusion 45 mg/70 kg, read-out: Cmax, Geometric LS means
  Cmax: 5720 ng/mL
[6]; both sexes, human, plasma, iv, 15 mg/70 kg, single 5 min iv infusion 15 mg, Geometric Mean
  clearance: 131 mL/min
[6]; both sexes, human, plasma, iv, 15 mg/70 kg, single 5 min iv infusion 15 mg, Geometric Mean, read-out: AUC0-∞
  AUC(0-inf): 1910 ng·h/mL
[6]; both sexes, human, plasma, iv, 15 mg/70 kg, single 5 min iv infusion 15 mg, Geometric Mean, read-out: Cmax
  Cmax: 1750 ng/mL
